Data set [1] deals with platelet aggregation by ADP. The data set can be described thus: inhibiting action on platelet aggregation by ADP (ADP TEST), plasma of orally treated rats. The note with it: Rattus norvegicus; for inhibition at 5 mg/kg / inhibition at 12.5 mg/kg / inhibition at 25 mg/kg / inhibition at 50 mg/kg / inhibition at 100 mg/kg: read-out: Percentage inhibition of platelet aggregation (ADP test). The data set is classed as in vivo, Wistar rats. The procedure:
(§1) A sample of blood is taken from the jugular vein of Wistar rats, which have previously been treated with the compound to be tested. From this blood, which is citrate-treated and centrifuged, there is reconstituted a plasma containing 600,000±20,000 platelets per mm^3, which is employed in all the aggregation measurements.
(§2) 0.4 ml. of plasma is treated in a siliconised tube provided with a bar magnet which is also siliconised. The tube is introduced into an aggregometer connected to an apparatus with which variations in optical density can be recorded. When the light transmission has reached a stable value, 0.5 ml. of a solution containing […] of ADP (adenosine diphosphate)is introduced into the tube.
(§3) Platelet aggregation then causes an increase in light transmission, followed by a reduction in light transmission due to the subsequent disaggregation stage.
(§4) The maximum variation in optical density thus determined relative to that of a plasma free of platelets characterises the intensity of aggregation.
(§5) The measurements are carried out during the 2 hours which follow the taking of the blood sample, this sample being taken 3 hours after treatment with the derivative to be tested.
(§6) Groups of 20 rats were used. Each group received a single dose of the compound to be tested, administered orally, the same compound being administered at different doses ranging from 5 mg./kg. to 100 mg./kg.
(§7) The results obtained are given in the following Tables II and III, which show the percentage inhibition of platelet aggregation obtained relative to the control experiment, 3 hours after treatment with the compound to be tested.

For data set [2], the system named is platelet aggregation by collagen. Description: inhibiting action on platelet aggregation by collagen (COLLAGEN TEST), plasma of orally treated rats. Format: in vivo, Wistar rats. Conditions: Rattus norvegicus, read-out: Percentage inhibition of platelet aggregation (collagen test). The procedure: as §1, §2, §3, §4, §5
The ADP solution is replaced by a solution of collagen (extracted from cattle tendons).
as §6, §7

Data set [3] can be described thus: in vivo. The note with it: mouse, iv. An excerpt:
This study was concerned with the acute, chronic, sub-chronic and delayed toxicities.

The subject of data set [4] is experimental thrombosis. Description: anti-thrombosis activity, experimental thrombosis caused by extracorporal circulation (Umetsu and Sonoi). Format: in vivo, rats. Conditions: control (5% gum arabic) 30.41. The procedure:
This activity was studied by the experimental thrombosis method caused by extracorporal circulation, described by Umetsu and Sonoi (Thrombos. Haemost., 39, […]).
The left jugular vein and the right external carotid are exposed in rats anaesthetised by an intraperitoneal injection of pentobarbital. A shunt is provided which consists of a central catheter and two lateral catheters. A natural white silk thread is introduced into the central part and the circulation is restarted for 20 minutes. After stopping the circulation by clamping, the thread is gently withdrawn and weighed immediately.
Treatment was carried out for 48 hours, 24 hours and 2 hours before the start of the blood circulation in shunt.
The test compounds were administered orally to different groups of animals in the form of a suspension in 10 ml. of 5% gum arabic/kg., the doses used being 12.5 mg./kg., 25 mg./kg., 50 mg./kg., 100 mg./kg. and 200 mg./kg.

[5] abbreviates: 5 mg/kg oral, single dose, 3 hours after treatment, relative to control.
Where [6] appears, read: 12.5 mg/kg oral, single dose, 3 hours after treatment, relative to control.
Setting [7] is: 25 mg/kg oral, single dose, 3 hours after treatment, relative to control.
[8] abbreviates: 50 mg/kg oral, single dose, 3 hours after treatment, relative to control.
Setting [9] is: 100 mg/kg oral, single dose, 3 hours after treatment, relative to control.

Molecules are shown by their SMILES. Read-outs that look alike come from different tables or passages of the source.

The inhibition is the share of the control response that was lost under treatment. What is called LD50 is the dose at which mortality reaches 50%.

Turning to `Cc1ccccc1CN1CCC2SC(=O)C=C2C1` (centres unmarked) [Derivative 4, 5-(o-Methylbenzyl)-5,6,7,7a-tetrahydro-4H-thieno-[3,2-c]pyridin-2-one], in data set [1] (po, 3 h), the inhibition at 5 mg/kg is 48%, the inhibition at 12.5 mg/kg came out at 81.9%, the inhibition at 25 mg/kg was found to be 82.1% and the inhibition at 50 mg/kg amounted to 82.8%. In addition, the inhibition at 100 mg/kg in data set [1] (po, 3 h) came out at 82.9%. Further, in data set [2] (po, 3 h), the inhibition at 5 mg/kg is 17.1%, the inhibition at 12.5 mg/kg came to 45.2%, the inhibition at 25 mg/kg was 85.9% and the inhibition at 50 mg/kg was found to be 88.1%. Also, the inhibition at 100 mg/kg in data set [2] (po, 3 h) was 88.2%. In data set [3], this compound registered an LD50 at 24 h of 110 mg/kg.

Turning to `O=C1C=C2CN(Cc3ccc(Cl)cc3)CCC2S1` (centres unmarked) [Derivative 3, 5-(p-Chlorobenzyl)-5,6,7,7a-tetrahydro-4H-thieno-[3,2-c]pyridin-2-one], the “Average weight of the thrombi” value in data set [4] (12.5 mg/kg oral, 48, 24 and 2 hours before) is 26.72 mg. Also, in data set [4] (25 mg/kg oral, 48, 24 and 2 hours before), the “Average weight of the thrombi” value was found to be 12.04 mg. In addition, the “Average weight of the thrombi” value in data set [4] (50 mg/kg oral, 48, 24 and 2 hours before) came out at 5.96 mg. The “Average weight of the thrombi” value in data set [4] (100 mg/kg oral, 48, 24 and 2 hours before) came to 4.62 mg. In addition, in data set [1] (po, 3 h), the inhibition at 5 mg/kg was determined as 48.1%, the inhibition at 12.5 mg/kg was determined as 82.4%, the inhibition at 25 mg/kg was determined as 83% and the inhibition at 50 mg/kg was found to be 83.5%. In addition, the inhibition at 100 mg/kg in data set [1] (po, 3 h) is 83.6%. In data set [2] (po, 3 h), the inhibition at 5 mg/kg came to 17.4%, the inhibition at 12.5 mg/kg was 44.9%, the inhibition at 25 mg/kg turned out to be 86.5% and the inhibition at 50 mg/kg was determined as 87.2%. Besides, the inhibition at 100 mg/kg in data set [2] (po, 3 h) turned out to be 88.1%. In data set [3], this compound registered a median lethal dose (LD50) at 24 h of 125 mg/kg.

Regarding `O=C1C=C2CN(Cc3ccccc3)CCC2S1` (centres unmarked) [Derivative 2, 5-Benzyl-5,6,7,7a-tetrahydro-4H-thieno[3,2-c]-pyridin-2-one], in data set [1] (po, 3 h), the inhibition at 5 mg/kg came to 47.8%, the inhibition at 12.5 mg/kg was found to be 82.6%, the inhibition at 25 mg/kg amounted to 82.9% and the inhibition at 50 mg/kg was 83.7%. Also, in data set [1] (po, 3 h), the inhibition at 100 mg/kg amounted to 83.7%. Further, in data set [2] (po, 3 h), the inhibition at 5 mg/kg amounted to 16.5%, the inhibition at 12.5 mg/kg was found to be 44.2%, the inhibition at 25 mg/kg was 85.8% and the inhibition at 50 mg/kg was 87%. In addition, the inhibition at 100 mg/kg in data set [2] (po, 3 h) is 87.8%. In data set [3], this compound displayed an LD50 at 24 h of 116 mg/kg.

Turning to `O=C1C=C2CN(Cc3ccccc3[N+](=O)[O-])CCC2S1` (centres unmarked) [Derivative 8, 5-(o-Nitrobenzyl)-5,6,7,7a-tetrahydro-4H-thieno[3,2-c]-pyridin-2-one], the inhibition at 5 mg/kg in data set [1] (setting [5]) came to 48%; in data set [2] (setting [5]) it was 17%. In addition, the inhibition at 12.5 mg/kg worked out at 82.8% in data set [1] (setting [6]) and 44.6% in data set [2] (setting [6]). For the same compound, the inhibition at 25 mg/kg in data set [1] (setting [7]) amounted to 83.1%; in data set [2] (setting [7]), 86.2%. Moreover, the results for the inhibition at 50 mg/kg in data set [1] (setting [8]) and in data set [2] (setting [8]) were 83.3% and 88.2%, respectively. Besides, the inhibition at 100 mg/kg in data set [1] (setting [9]) was 83.4%; in data set [2] (setting [9]) it was 88.7%. Also, the LD50 at 24 h in data set [3] stood at 278 mg/kg.

Regarding `N#Cc1ccccc1CN1CCC2SC(=O)C=C2C1` (centres unmarked) [Derivative 7, 5-(o-Cyanobenzyl)-5,6,7,7a-tetrahydro-4H-thieno[3,2-c]-pyridin-2-one], the inhibition at 5 mg/kg is 47.6% in data set [1] (setting [5]) and 16.5% in data set [2] (setting [5]). Further, the inhibition at 12.5 mg/kg in data set [1] (setting [6]) was found to be 82.7%; in data set [2] (setting [6]), 44.5%. In addition, the inhibition at 25 mg/kg in data set [1] (setting [7]) turned out to be 82.9%; in data set [2] (setting [7]), 86.2%. Further, the figures for the inhibition at 50 mg/kg in data set [1] (setting [8]) and in data set [2] (setting [8]) were 83.1% and 87.9%, respectively. In addition, the inhibition at 100 mg/kg in data set [1] (setting [9]) turned out to be 83.2%; in data set [2] (setting [9]) it was 89.4%. This compound displayed an LD50 at 24 h in data set [3] of 254 mg/kg.

As for `CC(c1ccccc1Cl)N1CCC2SC(=O)C=C2C1` (centres unmarked) [Derivative 5, 5-[1-(2-Chlorophenyl)-ethyl]-5,6,7,7a-tetrahydro-4H-thieno[3,2-c]pyridin-2-one], the inhibition at 5 mg/kg turned out to be 48.4% in data set [1] (setting [5]) and 17% in data set [2] (setting [5]). In addition, the inhibition at 12.5 mg/kg in data set [1] (setting [6]) was determined as 82%; in data set [2] (setting [6]), 44.8%. Further, the results for the inhibition at 25 mg/kg in data set [1] (setting [7]) and in data set [2] (setting [7]) were 82.4% and 86.1%, respectively. Moreover, the inhibition at 50 mg/kg in data set [1] (setting [8]) came to 83.2%; in data set [2] (setting [8]), 87.8%. Also, the inhibition at 100 mg/kg in data set [1] (setting [9]) is 83.5%; in data set [2] (setting [9]) it was 88%. Further, the LD50 at 24 h in data set [3] worked out at 286 mg/kg.

On to `CCC(c1ccccc1Cl)N1CCC2SC(=O)C=C2C1` (centres unmarked) [Derivative 6, 5-[1-(2-Chlorophenyl)-propyl]-5,6,7,7a-tetrahydro-4H-thieno[3,2-c]pyridin-2-one], for which the inhibition at 5 mg/kg was 48.7% in data set [1] (setting [5]) and 16.8% in data set [2] (setting [5]). Also, the results for the inhibition at 12.5 mg/kg in data set [1] (setting [6]) and in data set [2] (setting [6]) were 83% and 44.4%, respectively. For the same compound, the inhibition at 25 mg/kg in data set [1] (setting [7]) is 83.4%; in data set [2] (setting [7]), 85.7%. The inhibition at 50 mg/kg worked out at 83.9% in data set [1] (setting [8]) and 89% in data set [2] (setting [8]). The inhibition at 100 mg/kg stood at 83.9% in data set [1] (setting [9]) and 89.2% in data set [2] (setting [9]). This compound registered a median lethal dose (LD50) at 24 h in data set [3] of 121 mg/kg.

For `N#Cc1ccccc1CN1CCc2sccc2C1` [Reference compound B, 5-(2-cyanobenzyl)-4,5,6,7-tetrahydrothieno[3,2-c]pyridine, reference compound], the inhibition at 5 mg/kg in data set [1] (setting [5]) and in data set [2] (setting [5]) was 0% each time. Also, the inhibition at 12.5 mg/kg in data set [1] (setting [6]) and in data set [2] (setting [6]) was 0% in each case. Also, the figures for the inhibition at 25 mg/kg in data set [1] (setting [7]) and in data set [2] (setting [7]) were 0% and 38.5%, respectively. For the same compound, the values for the inhibition at 50 mg/kg in data set [1] (setting [8]) and in data set [2] (setting [8]) were 35.5% and 51.2%, respectively. The inhibition at 100 mg/kg was determined as 63.8% in data set [1] (setting [9]) and 78.8% in data set [2] (setting [9]). Besides, the minimal effective dose in data set [1] (3 h, oral, rats, stated for the aggregation tests (ADP and collagen), read-out: dose at which significant (or similar) platelet aggregation inhibiting activity manifests itself) worked out at 100 mg/kg. This compound yielded an LD50 at 24 h in data set [3] of 45 mg/kg.

Turning to `O=C1C=C2CN(Cc3ccccc3Br)CCC2S1` (centres unmarked) [Derivative 9, 5-(o-Bromobenzyl)-5,6,7,7a-tetrahydro-4H-thieno[3,2-c]-pyridin-2-one], in data set [1] (po, 3 h), the inhibition at 5 mg/kg was found to be 48.4%, the inhibition at 12.5 mg/kg came to 83.1%, the inhibition at 25 mg/kg stood at 83.4% and the inhibition at 50 mg/kg turned out to be 83.7%. Further, the inhibition at 100 mg/kg in data set [1] (po, 3 h) is 84%. In data set [2] (po, 3 h), the inhibition at 5 mg/kg is 17.2%, the inhibition at 12.5 mg/kg came out at 44.9%, the inhibition at 25 mg/kg came to 86.4% and the inhibition at 50 mg/kg came to 87.6%. In addition, the inhibition at 100 mg/kg in data set [2] (po, 3 h) was determined as 88.6%. In addition, the LD50 at 24 h in data set [3] is 118 mg/kg.

Source of the values: patent US4515951A, “Preparation of 5,6,7,7a-tetrahydro-4H-thieno[3,2-c]pyridin-2-one compounds” (Sanofi, priority 1980, dated 1985).
